Here are results for 4 molecules from patent publication US20260315467A1, “PHARMACEUTICAL COMBINATION OF FAK INHIBITOR AND EGFR-TKI, AND USE” (INXMED (NANJING) CO., LTD., priority 2022, published 2026).

One may read the TGI as the reduction of tumour growth relative to the control group. High values mean a stronger effect on the tumour, low ones a weaker effect on the tumour.

One test deals with lung cancer KPL cells. In words: White light microscope observation of lung cancer KPL cells after 48 h drug incubation (Examples 1-3). Type of test: cell-based.
In another test the test system is colon cancer MC38 cell. In words: In vivo anti-tumor efficacy in subcutaneous allograft tumor model of colon cancer MC38 cell in C57BL/6 mice. Details: species or system mouse. Particulars: PD-L1 antibody 5 mg/kg i.p. BIW. The source says: Mice: Female C57BL/6 mice aged 6-8 weeks were purchased from Shanghai Slack Laboratory Animal Co., Ltd. After the animals arrived, they were raised for acclimatization in the assay environment before the assay. The animals were raised in cages (5 animals per cage) with IVC (independent air supply system) in a SPF animal room. All the cages, padding and drinking water were sterilized before use. All the experimenters wore protective clothing and latex gloves when operating in the animal room. The animal information card for each cage indicated the number, sex, strain, receiving date, administration plan, assay number, group and assay start date of the animals in the cage. […]
Colorectal cancer cells MC38 (from Nanjing Kebai Biotechnology Co., Ltd., article number: CBP60825) were maintained and passaged by InxMed (Nanjing) Co., Ltd. The cells were cultured in monolayer in vitro, and the culture conditions were DMEM medium with 10% fetal bovine serum, 37° C. and 5% CO2 incubator. […] When the cells were in exponential growth period and the saturation reached 80% to 90%, the cells were collected, counted and inoculated. […]
The diameter of a tumor was measured with a vernier caliper 3 times a week. […]
Referring to the tumor volume on the first day after grouping, the tumor growth inhibition rate TGI (%) was calculated according to the following formula. […]

In another test the test system is lung cancer cells HCC827. In words: Apoptosis of HCC827 cells after FAK silencing combined with AZD9291 (Annexin V, flow cytometer). It counts as cell-based. Particulars: FAK siRNA 50 nM, then 0.3 nM AZD9291, 48 hours. How it is done: In an in vitro assay, siRNA technology was used to reduce the expression level of FAK, which was combined with AZD9291 for 48 hours; a flow cytometer was used to detect the apoptosis in control and FAK-silenced cells.
(§1) Assay antibodies: Recombinant Alexa Fluor® 647 Anti-Calreticulin antibody (Abcam, ab196159), Annexin V apoptosis detection kit (Invitrogen, A35110).
HCC827 cells were transfected with control siRNA or FAK siRNA at a final concentration of 50 nM, respectively. After 24 hours of transfection, 0.3 nM AZD9291 was added and the cells were treated for 48 hours. The cells were stained using the Annexin V kit and detected using a flow cytometer. The values of early and late apoptosis of the cells were compared with those of the DMSO control group, and Graphpad 8.0 was used for graphing.
(In general: Flow cytometry measures light scatter and fluorescence of single cells or particles in a stream.)

In the next test the test system is Calreticulin. Description: Calreticulin release and exposure in HCC827 cells after FAK silencing combined with AZD9291. It counts as cell-based. Particulars: FAK siRNA 50 nM, then 0.3 nM AZD9291, 48 hours. How it is done: In an in vitro assay, siRNA technology was used to reduce the expression level of FAK, which was combined with AZD9291 for 48 hours; a flow cytometer was used to detect the expression of Calreticulin, the main target of ICD.
as §1
HCC827 cells were transfected with control siRNA or FAK siRNA at a final concentration of 50 nM, respectively. After 24 hours of transfection, 0.3 nM AZD9291 was added and the cells were treated for 48 hours. The Calreticulin antibody was used for fluorescent staining, and the staining results were analyzed by a flow cytometer.

The mark [1] stands for this setting: Example 1, IN10018 10 μM, AZD9291 10 μM, or both.
[2] abbreviates: Example 3, IN10018 10 μM, Alflutinib 4.7 μM, or both.
Where [3] appears, read: Example 2, IN10018 10 μM, Almonertinib 4.7 μM, or both.

On to `C=CC(=O)Nc1cc(Nc2nccc(-c3cn(C)c4ccccc34)n2)c(OC)cc1N(C)CCN(C)C` [AZD9291, Osimertinib], for which, in the test on lung cancer KPL cells (setting [1]), the “condition of cells under microscope” value was “poor condition”. In the test with colon cancer MC38 cell (day 14, AZD9291 20, IN10018 25 mg/kg p.o. QD), this molecule displayed a TGI of 24.4%. Also, the “Tumor volume on day 14” value in the test on colon cancer MC38 cell (day 14 after group administration, AZD9291 20, IN10018 25 mg/kg p.o. QD, mean ± standard error of the mean) was found to be 1518.1±728.8 mm^3. In the test with lung cancer cells HCC827, the “late apoptosis in the FAK silencing group compared with the control group” value is recorded as “significantly enhanced”. Moreover, the “release and exposure of Calreticulin after FAK silencing” value in the test on Calreticulin is on record as “significantly enhanced”.

As for `C=CC(=O)Nc1cc(Nc2nccc(-c3cn(C)c4ccccc34)n2)c(OCC(F)(F)F)nc1N(C)CCN(C)C` [Alflutinib], the “condition of cells under microscope” value in the test with lung cancer KPL cells (setting [2]) was “poor condition”.

As to `C=CC(=O)Nc1cc(Nc2nccc(-c3cn(C4CC4)c4ccccc34)n2)c(OC)cc1N(C)CCN(C)C` [Almonertinib], the “condition of cells under microscope” value in the test with lung cancer KPL cells (setting [3]) was “poor condition”.

In the case of `COc1cc(C(=O)NC2CCN(C)CC2)c(F)cc1Nc1ncc(C(F)(F)F)c(Oc2cccc3c2C(=O)N(C)C3)n1` [IN10018], the “condition of cells under microscope” value in the test with lung cancer KPL cells (setting [1]), in the test on lung cancer KPL cells (setting [3]) and in the test with lung cancer KPL cells (setting [2]) was “better condition” each time.
